Results on 23 molecules are retold here after US10851083B2, “Benzoimidazoles as prolyl hydroxylase inhibitors” (Janssen Pharmaceutica NV, priority 2008, dated 2020).

In one assay the target is human PHD2181-417 (Homo sapiens (Human), UniProt Q9GZT9). The assay is described as follows: PHD2 enzyme activity assay ([14C]-succinic acid production).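 Note: reaction ran 10 min with compound in Tris pH 7.5 buffer with catalase, DTT and ascorbate, labelled succinate freed of leftover 2-oxoglutarate by DNP precipitation, then beta counted.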 It counts as biochemical. The settings on record: PHD2181-417 polypeptide, HIF-1α peptide 10 μM, [5-14C]-2-oxoglutaric acid; 30 min pre-incubation; tested 10 μM to 3 nM.
Chain of human PHD2181-417 (Q9GZT9 181-417): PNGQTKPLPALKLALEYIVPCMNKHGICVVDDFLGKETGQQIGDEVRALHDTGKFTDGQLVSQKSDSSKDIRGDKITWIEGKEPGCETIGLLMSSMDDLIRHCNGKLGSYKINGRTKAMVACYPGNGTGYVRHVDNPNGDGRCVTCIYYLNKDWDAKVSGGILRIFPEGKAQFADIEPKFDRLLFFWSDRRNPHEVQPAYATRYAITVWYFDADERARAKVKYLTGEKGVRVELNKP
The subject of a further assay is Hep-3B cells. The assay can be described thus: Cellular assay: EPO secretion in Hep-3B cells. It counts as cell-based, human. More on the design: EPO secretion, % of control compound: dose or concentration left out as unconfirmed. The conditions noted are these: Homo sapiens, Hep3B, 24 h, EPO secretion as percentage of control compound 7-[(4-Chloro-phenyl)-(5-methyl-isoxazol-3-ylamino)-methyl]-quinolin-8-ol, read-out: Cellular % EPO Stimulation.

For `O=C(O)c1cnn(-c2nc3ccc4scnc4c3[nH]2)c1` [Example 125, 1-(8H-Imidazo[4′,5′:3,4]benzo[2,1-d]thiazol-7-yl)-1H-pyrazole-4-carboxylic Acid], the “Enzyme pIC50” value on human PHD2181-417 came out at 6. In addition, the EPO secretion, % of control compound in the assay on Hep-3B cells came out at 46.8%.

In the case of `O=C(O)c1cnn(-c2nc3cc(C(F)(F)F)c(C(F)(F)F)cc3[nH]2)c1` [Example 126, 1-(5,6-Bis-trifluoromethyl-1H-benzoimidazol-2-yl)-1H-pyrazole-4-carboxylic Acid], the “Enzyme pIC50” value on human PHD2181-417 is 7.4. Further, the EPO secretion, % of control compound with Hep-3B cells came to 82.7%.

Turning to `O=C(O)c1cnn(-c2nc3c(Cl)c(Cl)c(Cl)cc3[nH]2)c1` [Example 127, 1-(4,5,6-Trichloro-1H-benzoimidazol-2-yl)-1H-pyrazole-4-carboxylic Acid], on human PHD2181-417, the “Enzyme pIC50” value came out at 6.9. Also, the EPO secretion, % of control compound in the assay with Hep-3B cells amounted to 70.6%.

In the case of `O=C(O)c1cnn(-c2nc3c(Br)c(Cl)c(Cl)cc3[nH]2)c1` [Example 128, 1-(4-Bromo-5,6-dichloro-1H-benzoimidazol-2-yl)-1H-pyrazole-4-carboxylic Acid], the “Enzyme pIC50” value on human PHD2181-417 was determined as 7.1. Besides, the EPO secretion, % of control compound in the assay on Hep-3B cells is 24.1%.

`CCNc1cc2nc(-n3cc(C(=O)O)cn3)[nH]c2cc1Cl` [Example 130, 1-(6-Chloro-5-ethylamino-1H-benzoimidazol-2-yl)-1H-pyrazole-4-carboxylic Acid]: at human PHD2181-417, the “Enzyme pIC50” value is reported as 6.2. Further, in the assay on Hep-3B cells, the EPO secretion, % of control compound is 48%.

`CCCNc1cc2nc(-n3cc(C(=O)O)cn3)[nH]c2cc1Cl` [Example 131, 1-(6-Chloro-5-propylamino-1H-benzoimidazol-2-yl)-1H-pyrazole-4-carboxylic Acid]: the “Enzyme pIC50” value at human PHD2181-417 worked out at 6.5. Also, in the assay on Hep-3B cells, the EPO secretion, % of control compound turned out to be 89%.

Take `O=C(O)c1cnn(-c2nc3cc(NCc4ccccc4)c(Cl)cc3[nH]2)c1` [Example 132, 1-(5-Benzylamino-6-chloro-1H-benzoimidazol-2-yl)-1H-pyrazole-4-carboxylic Acid]: the “Enzyme pIC50” value at human PHD2181-417 was determined as 6.2. For the same molecule, the EPO secretion, % of control compound in the assay with Hep-3B cells worked out at 52.6%.

As to `O=C(O)c1cnn(-c2nc3cc(Nc4ccccc4)c(Cl)cc3[nH]2)c1` [Example 133, 1-(6-Chloro-5-phenylamino-1H-benzoimidazol-2-yl)-1H-pyrazole-4-carboxylic Acid], at human PHD2181-417, the “Enzyme pIC50” value was determined as 6.9. In addition, the EPO secretion, % of control compound with Hep-3B cells is 77%.

Regarding `O=C(O)c1cnn(-c2nc3cc(NCCN4CCOCC4)c(Cl)cc3[nH]2)c1` [Example 134, 1-[6-Chloro-5-(2-morpholin-4-yl-ethylamino)-1H-benzoimidazol-2-yl]-1H-pyrazole-4-carboxylic Acid], the “Enzyme pIC50” value on human PHD2181-417 worked out at 6.3. Further, in the assay on Hep-3B cells, the EPO secretion, % of control compound is 56.5%.

In the case of `O=C(O)c1cnn(-c2nc3cc(NS(=O)(=O)C4CC4)c(Cl)cc3[nH]2)c1` [Example 135, 1-(6-Chloro-5-cyclopropanesulfonylamino-1H-benzoimidazol-2-yl)-1H-pyrazole-4-carboxylic Acid], the “Enzyme pIC50” value on human PHD2181-417 was 6.8. Also, the EPO secretion, % of control compound in the assay with Hep-3B cells is 17%.

Consider `CS(=O)(=O)Nc1cc2nc(-n3cc(C(=O)O)cn3)[nH]c2cc1Cl` [Example 136, 1-(6-Chloro-5-methanesulfonylamino-1H-benzoimidazol-2-yl)-1H-pyrazole-4-carboxylic Acid], for which the “Enzyme pIC50” value on human PHD2181-417 came out at 6.8. Moreover, the EPO secretion, % of control compound with Hep-3B cells worked out at 9%.

As to `CCS(=O)(=O)Nc1cc2nc(-n3cc(C(=O)O)cn3)[nH]c2cc1Cl` [Example 137, 1-(6-Chloro-5-ethanesulfonylamino-1H-benzoimidazol-2-yl)-1H-pyrazole-4-carboxylic Acid], the “Enzyme pIC50” value at human PHD2181-417 was 6.6. Also, the EPO secretion, % of control compound in the assay on Hep-3B cells stood at 11%.

For the molecule `O=C(O)c1cnn(-c2nc3cc(NS(=O)(=O)c4ccccc4)c(Cl)cc3[nH]2)c1` [Example 138, 1-(5-Benzenesulfonylamino-6-chloro-1H-benzoimidazol-2-yl)-1H-pyrazole-4-carboxylic Acid], on human PHD2181-417, the “Enzyme pIC50” value came to 6.8. Besides, in the assay with Hep-3B cells, the EPO secretion, % of control compound is 19%.

For the molecule `CC(=O)Nc1cc2nc(-n3cc(C(=O)O)cn3)[nH]c2cc1Cl` [Example 139, 1-(5-Acetylamino-6-chloro-1H-benzoimidazol-2-yl)-1H-pyrazole-4-carboxylic Acid], the “Enzyme pIC50” value at human PHD2181-417 amounted to 6.3. For the same molecule, the EPO secretion, % of control compound in the assay on Hep-3B cells turned out to be 24%.

With `CCC(=O)Nc1cc2nc(-n3cc(C(=O)O)cn3)[nH]c2cc1Cl` [Example 140, 1-(6-Chloro-5-propionylamino-1H-benzoimidazol-2-yl)-1H-pyrazole-4-carboxylic Acid], the “Enzyme pIC50” value at human PHD2181-417 was 6.4. Moreover, in the assay with Hep-3B cells, the EPO secretion, % of control compound amounted to 10%.

On to `O=C(O)c1cnn(-c2nc3cc(NC(=O)c4ccccc4)c(Cl)cc3[nH]2)c1` [Example 141, 1-(5-Benzoylamino-6-chloro-1H-benzoimidazol-2-yl)-1H-pyrazole-4-carboxylic Acid], for which the “Enzyme pIC50” value on human PHD2181-417 amounted to 6.6. The EPO secretion, % of control compound in the assay on Hep-3B cells turned out to be 33%.

Turning to `O=C(CN1CCOCC1)Nc1cc2nc(-n3cc(C(=O)O)cn3)[nH]c2cc1Cl` [Example 142, 1-[6-Chloro-5-(2-morpholin-4-yl-acetylamino)-1H-benzoimidazol-2-yl]-1H-pyrazole-4-carboxylic Acid], at human PHD2181-417, the “Enzyme pIC50” value is reported as 6.4. Besides, the EPO secretion, % of control compound in the assay with Hep-3B cells amounted to 17%.

Turning to `O=C(CN1CCCCC1)Nc1cc2nc(-n3cc(C(=O)O)cn3)[nH]c2cc1Cl` [Example 143, 1-[6-Chloro-5-(2-piperidin-1-yl-acetylamino)-1H-benzoimidazol-2-yl]-1H-pyrazole-4-carboxylic Acid], the “Enzyme pIC50” value on human PHD2181-417 came out at 6.2. Besides, in the assay with Hep-3B cells, the EPO secretion, % of control compound is 20%.

Take `CN1CCN(CC(=O)Nc2cc3nc(-n4cc(C(=O)O)cn4)[nH]c3cc2Cl)CC1` [Example 144, 1-{6-Chloro-5-[2-(4-methyl-piperazin-1-yl)-acetylamino]-1H-benzoimidazol-2-yl}-1H-pyrazole-4-carboxylic Acid]: the “Enzyme pIC50” value on human PHD2181-417 worked out at 6.4. Besides, the EPO secretion, % of control compound in the assay on Hep-3B cells was 16%.

Turning to `COc1ccc(Oc2cc3nc(-n4cc(C(=O)O)cn4)[nH]c3cc2Cl)cc1` [Example 145, 1-[6-Chloro-5-(4-methoxy-phenoxy)-1H-benzoimidazol-2-yl]-1H-pyrazole-4-carboxylic Acid], the “Enzyme pIC50” value at human PHD2181-417 was found to be 7.1. Besides, the EPO secretion, % of control compound in the assay on Hep-3B cells turned out to be 13.9%.

In the case of `O=C(O)c1cnn(-c2nc3cc(Oc4ccc(Cl)cc4F)c(Cl)cc3[nH]2)c1` [Example 146, 1-[6-Chloro-5-(4-chloro-2-fluoro-phenoxy)-1H-benzoimidazol-2-yl]-1H-pyrazole-4-carboxylic Acid], on human PHD2181-417, the “Enzyme pIC50” value was 7.2. Moreover, the EPO secretion, % of control compound in the assay with Hep-3B cells is 49.9%.

As to `O=C(O)c1cnn(-c2nc3cc(Oc4ccc(OC(F)(F)F)cc4)c(Cl)cc3[nH]2)c1` [Example 147, 1-[6-Chloro-5-(4-trifluoromethoxy-phenoxy)-1H-benzoimidazol-2-yl]-1H-pyrazole-4-carboxylic Acid], the “Enzyme pIC50” value on human PHD2181-417 came to 7.4. Further, the EPO secretion, % of control compound in the assay on Hep-3B cells was 45.9%.

As to `O=C(O)c1cnn(-c2nc3cc(Oc4ccc(F)c(Cl)c4)c(Cl)cc3[nH]2)c1` [Example 148, 1-[6-Chloro-5-(3-chloro-4-fluoro-phenoxy)-1H-benzoimidazol-2-yl]-1H-pyrazole-4-carboxylic Acid], at human PHD2181-417, the “Enzyme pIC50” value is recorded as 7.1. Also, in the assay with Hep-3B cells, the EPO secretion, % of control compound amounted to 38.1%.
